In paper PMC10686834, “Targeting myeloid chemotaxis to reverse prostate cancer therapy resistance” (Nature, 2023):

Assays:
[1] = Pharmacokinetics of AZD5069 in plasma, non-compartmental analysis (AUClast, Cmax); type: in vivo, human
Description: Specific pharmacokinetic collection time points are listed in the study protocol. Pharmacokinetic parameters were calculated using non-compartmental analysis (Phoenix v.8.1, Certara). Fresh tumour needle core biopsies from matched disease sites (lymph node, bone and soft tissue) were collected at baseline (within 1 week of treatment commencement) and approximately 2 weeks after starting AZD5069 in patients when this was deemed safe and feasible. Tumour biopsies were obtained from 18 patients under computerized tomography or ultrasound guidance by an experienced interventional radiologist (N.T.). […] One patient had only a baseline tumour biopsy. Two patients underwent on-treatment biopsies after 4 weeks. Immediately after biopsy, tumour samples were immersed in 10% neutral-buffered formalin for 24 hours. Samples were processed through paraffin wax for histologic examination. Three 3 μm sections of formalin-fixed paraffin-embedded (FFPE) tumour biopsy were stained with haematoxylin and eosin to confirm the presence of tumour by a pathologist (B.G.). Tumour samples with insufficient tumour content or significant crushed artefact were excluded from analyses (B.G.). Baseline FFPE samples were analysed by IHC, and pre- and post-treatment FFPE biopsies were analysed by IF and targeted RNA profiling using HTG EdgeSeq. All samples that failed initial analyses by IF were restained at least once. A list of tumour samples and their methods of analyses are detailed in Supplementary Table 4.

[2] = system: LPS induced pulmonary neutrophilia; set-up: method as in AZD5069 Investigator Brochure (IB); settings: rat; ref AZD5069 Investigator Brochure (IB); cited from earlier work

C[C@@H](Oc1cc(NS(=O)(=O)N2CCC2)nc(SCc2cccc(F)c2F)n1)[C@@H](O)CO [AZD5069]
AZD5069 exposure (AUClast and Cmax) at steady state versus dose ([1]; AZD5069 monotherapy day 15, 40 to 160 mg BD): increased in a dose-dependent manner
AZD5069 exposure (AUClast) with enzalutamide ([1]; combination (28 days) versus monotherapy (14 days), particularly at the higher dose levels): decreased after the addition of enzalutamide
drug exposure (AUClast and Cmax) ([1]; partial responder at AZD5069 80 mg BD): comparable to those of patients treated at 160 mg BD
effect on LPS induced pulmonary neutrophilia [2]: dose dependent inhibition
